The source of these data is patent EP4467137A1, “TREATMENT OF FRONTOTEMPORAL DEMENTIA OR FRONTOTEMPORAL LOBAR DEMENTIA” (Universidad Autónoma de Madrid, priority 2023, dated 2024).

Broadly, the CC50 is the concentration giving 50% cytotoxicity. Low readings indicate harm at low concentration, high ones better tolerance by the cells.

Series [1] is described as follows: Cell viability/toxicity by the MTT method. The class given is cell-based. Particulars: human, effect of the compound per se on AREc332 cells. From the text: Based on the results obtained (Table 2), Compound 1 was selected for further in vitro and in vivo studies as it was endowed with the best anti-neuroinflammatory activity. Table 2: Comparative in vitro results. Cell viability/toxicity: effect of the compound per se on cell viability of […] cells measured with the MTT method. Anti-neuroinflammatory effect: % Reduction of nitrites in primary rat glial cultures. PAMPA-BBB: In vitro blood-brain barrier permeation assay, permeation rate Pe (10-6 cm.s-1). NRF2, CD (µM): Concentration of compound that doubles de activation of NRF2. ORAC: Oxygen radical absorbance capacity. LOX-5: lipoxygenase-5.
On the technique in general: Tetrazolium assays rely on reduction of a dye to a coloured formazan, in cell work by metabolically active cells.

The test system of the next series is TNF-α mRNA. The series can be described thus: qRT-PCR of TNFα in LPS-exposed BV2 cells. As to conditions: 10 and 30 µM, 24 h LPS. Type of series: cell-based, mouse. The procedure: • Figure 1. Compound 1 reduces the inflammatory response against LPS in vitro. (A) Nitric oxide (NO) production in BV2 cells detected by DAF 24 h after LPS exposure and normalized by cell viability measured by MTT (n = 9). (B) qRT-PCR of TNFα (n = 9) in BV2 cells after 24 h LPS exposure. Sulforaphane (Sfn) was used as a positive control. […] Compound 1 decreases the inflammatory process 4 and 24 hours after LPS administration in vivo. Compound 1 (20 mg·kg^-1) daily was injected i.p. four days before the i.p. LPS (0.5 mg·kg^-1) administration. […] Compound 1 ameliorates the resolution of the inflammatory process triggered by LPS. […] (B) Locomotion activity measured by line crossings of an imaginary grid. […] Compound 1 reduced tau seeding in HEK-293 tau FRET biosensor measured by flow cytometer (C). […] Representative images of hyperphosphorylated tau intensity measured by AT8 and AT180 antibodies in three different regions of the hippocampus (GD, CA3 and CA1) (n = 11-12). (B) Quantification AT8 intensity, normalized to CA3 intensity of Sham animals. (C) Quantification of AT180 intensity, normalized to CA3 intensity of Sham animals (n = 9-12). […] Quantification of sarkosyl soluble (n = 10) (C) and insoluble species (D) using AT8 antibody (n = 10). Quantification of sarkosyl soluble (n = 10) (E) and insoluble species (F) using AT180 antibody (n = 10). […]
(Quantitative PCR measures a nucleic acid by following its amplification.)

The subject of the next series is hyperphosphorylated tau. The series can be described thus: Hyperphosphorylated tau (AT8 immunofluorescence) in primary neurons treated with AAV-hTauP301L. Type of series: cell-based, mouse. Particulars: treatment every other day for 8 days, compound 1 at 30 µM.

A value given as a limit tells only on which side of the number the result lay.

The compound `COc1ccc2c(c1)CC(c1c[nH]c3ccc(OC)cc13)N2` (stereo not drawn) [Compound 1, 5-Methoxy-3-(5-methoxyindolin-2-yl)-1H-indole] gave a CC50 in series [1] of over 30 µM. In addition, the “TNF-α mRNA” value in the series on TNF-α mRNA is “reduced”. Further, in the series with hyperphosphorylated tau, the AT8 intensity levels result was “reduced”.
